Drawing on patent US20260028354A1, “TETRAHYDRONAPHTHALENE DERIVATIVES AS ESTROGEN RECEPTOR DEGRADERS” (REGENT OF THE UNIVERSITY OF MICHIGAN, priority 2022, published 2026), this text covers DC50 for 18 compounds.

SMILES strings stand for the structures.

As usually defined, the DC50 is the midpoint of the concentration-degradation curve.

The experiment in a line: Western blot analysis for "B" compounds. The class given is cell-based. The settings on record: read-out: Traditional Western Degradation Potency (DC50). In a few lines: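 Target protein levels given as relative mean band intensity over GAPDH from scanned immunoblots. Lysates of treated cells in RIPA buffer, equalized by BCA, separated on 10% gels and transferred to PVDF.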
In the case of `C[C@H]1CC2(CCN(CC(=O)N3Cc4cc5c(cc4C3)C(=O)N(C3CCC(=O)NC3=O)C5=O)CC2)CN1c1ccc([C@@H]2c3ccc(O)cc3CC[C@@H]2c2ccccc2)cc1` (stereo partly drawn) [Compound B25, 2-(2,6-dioxopiperidin-3-yl)-6-(2-((S)-2-(4-((1R,2S)-6-hydroxy-2-phenyl-1,2,3,4-tetrahydronaphthalen-1-yl)phenyl)-3-methyl-2,8-diazaspiro[4.5]decan-8-yl)acetyl)-6,7-dihydropyrrolo[3,4-f]isoindole-1,3(2H,5H)-dione], the DC50 is greater than 100 nM. The value for `O=C1CCC(N2C(=O)c3cc4c(cc3C2=O)CCN(CC(=O)N2CCC3(CC2)CCN(c2ccc([C@@H]5c6ccc(O)cc6CC[C@@H]5c5ccccc5)cc2)CC3)CC4)C(=O)N1` (stereo partly drawn) [Compound B39, 2-(2,6-dioxopiperidin-3-yl)-7-(2-(9-(4-((1R,2S)-6-hydroxy-2-phenyl-1,2,3,4-tetrahydronaphthalen-1-yl)phenyl)-3,9-diazaspiro[5.5]undecan-3-yl)-2-oxoethyl)-6,7,8,9-tetrahydroazepino[4,5-f]isoindole-1,3(2H,5H)-dione] was greater than 100 nM; that for `O=C1CCC(N2C(=O)c3cc4c(cc3C2=O)CC2(C4)CN(CC3CCN(c4ccc([C@@H]5c6ccc(O)cc6CC[C@@H]5c5ccccc5)cc4)CC3)C2)C(=O)N1` (stereo partly drawn) [Compound B296, 2′-(2,6-dioxopiperidin-3-yl)-1-((1-(4-((1R,2S)-6-hydroxy-2-phenyl-1,2,3,4-tetrahydronaphthalen-1-yl)phenyl)piperidin-4-yl)methyl)-5′,7′-dihydro-1′H-spiro[azetidine-3,6′-cyclopenta[f]isoindole]-1′,3′(2'H)-dione] was greater than 100 nM; that for `O=C1CCC(N2C(=O)c3cc4c(cc3C2=O)CN(CC2CCN(C(=O)C3(F)CN(c5ccc([C@@H]6c7ccc(O)cc7CC[C@@H]6c6ccccc6)cc5)C3)CC2)C4)C(=O)N1` (stereo partly drawn) [Compound B266, 2-(2,6-dioxopiperidin-3-yl)-6-((1-(3-fluoro-1-(4-((1R,2S)-6-hydroxy-2-phenyl-1,2,3,4-tetrahydronaphthalen-1-yl)phenyl)azetidine-3-carbonyl)piperidin-4-yl)methyl)-6,7-dihydropyrrolo[3,4-f]isoindolc-1,3(2H,5H)-dionc] was greater than 100 nM. The value for `O=C1CCC(N2C(=O)c3cc4c(cc3C2=O)CN(C(=O)[C@H]2CC[C@H](N3CC(Nc5ccc([C@@H]6c7ccc(O)cc7CC[C@@H]6c6ccccc6)cc5)C3)CC2)C4)C(=O)N1` (stereo partly drawn) [Compound B128, 2-(2,6-dioxopiperidin-3-yl)-6-((1S,4r)-4-(3-((4-((1R,2S)-6-hydroxy-2-phenyl-1,2,3,4-tetrahydronaphthalen-1-yl)phenyl)amino)azetidin-1-yl)cyclohexane-1-carbonyl)-6,7-dihydropyrrolo[3,4-f]isoindole-1,3(2H,5H)-dione] was 10 to 100 nM; that for `O=C1CCC(N2C(=O)c3cc4c(cc3C2=O)CN(C2CCC(CNC3CN(c5ccc([C@@H]6c7ccc(O)cc7CC[C@@H]6c6ccccc6)cc5)C3)CC2)C4)C(=O)N1` (stereo partly drawn) [Compound B100, 2-(2,6-dioxopiperidin-3-yl)-6-(4-(((1-(4-((1R,2S)-6-hydroxy-2-phenyl-1,2,3,4-tetrahydronaphthalen-1-yl)phenyl)azetidin-3-yl)amino)methyl)cyclohexyl)-6,7-dihydropyrrolo[3,4-f]isoindole-1,3(2H,5H)-dione] was greater than 100 nM. As to `O=C1CCC(N2C(=O)c3cc4c(cc3C2=O)CN(C2CCC(C(=O)NC3CN(c5ccc([C@@H]6c7ccc(O)cc7CC[C@@H]6c6ccccc6)cc5)C3)CC2)C4)C(=O)N1` (stereo partly drawn) [Compound B98, 4-(6-(2,6-dioxopiperidin-3-yl)-5,7-dioxo-3,5,6,7-tetrahydropyrrolo[3,4-f]isoindol-2(1H)-yl)-N-(1-(4-((1R,2S)-6-hydroxy-2-phenyl-1,2,3,4-tetrahydronaphthalen-1-yl)phenyl)azetidin-3-yl)cyclohexane-1-carboxamide], the DC50 was greater than 100 nM. Regarding `O=C1CCC(N2C(=O)c3cc4c(cc3C2=O)CN(CC(=O)N2CCC3(CC2)CCN(c2ccc([C@@H]5c6ccc(O)cc6CC[C@@H]5c5ccccc5)cc2)CC3)CC4)C(=O)N1` (stereo partly drawn) [Compound B194, 2-(2,6-dioxopiperidin-3-yl)-6-(2-(9-(4-((1R,2S)-6-hydroxy-2-phenyl-1,2,3,4-tetrahydronaphthalen-1-yl)phenyl)-3,9-diazaspiro[5.5]undecan-3-yl)-2-oxoethyl)-5,6,7,8-tetrahydro-1H-pyrrolo[3,4-g]isoquinoline-1,3(2H)-dione], the DC50 was in the range of 10 to 100 nM. The figure for `O=C1CCC(N2C(=O)c3cc4c(cc3C2=O)CN(Cc2ccc(N3CC(Nc5ccc([C@@H]6c7ccc(O)cc7CC[C@@H]6c6ccccc6)cc5)C3)nc2)C4)C(=O)N1` (stereo partly drawn) [Compound B117, 2-(2,6-dioxopiperidin-3-yl)-6-((6-(3-((4-((1R,2S)-6-hydroxy-2-phenyl-1,2,3,4-tetrahydronaphthalen-1-yl)phenyl)amino)azetidin-1-yl)pyridin-3-yl)methyl)-6,7-dihydropyrrolo[3,4-f]isoindole-1,3(2H,5H)-dione] is greater than 100 nM; for `O=C1CCC(N2C(=O)c3cc4c(cc3C2=O)CN(CC2CCC(NC3CN(c5ccc([C@@H]6c7ccc(O)cc7CC[C@@H]6c6ccccc6)cc5)C3)CC2)C4)C(=O)N1` (stereo partly drawn) [Compound B99, 2-(2,6-dioxopiperidin-3-yl)-6-((4-((1-(4-((1R,2S)-6-hydroxy-2-phenyl-1,2,3,4-tetrahydronaphthalen-1-yl)phenyl)azetidin-3-yl)amino)cyclohexyl)methyl)-6,7-dihydropyrrolo[3,4-f]isoindole-1,3(2H,5H)-dione] it is greater than 100 nM; for `Cn1cc(-c2ccc3c(c2)CC[C@H](c2ccccc2)[C@@H]3c2ccc(N3CCC4(CCN(C(=O)CN5Cc6cc7c(cc6C5)C(=O)N(C5CCC(=O)NC5=O)C7=O)CC4)CC3)cc2)cn1` (stereo partly drawn) [Compound B323, 2-(2,6-dioxopiperidin-3-yl)-6-(2-(9-(4-((1R,2S)-6-(1-methyl-1H-pyrazol-4-yl)-2-phenyl-1,2,3,4-tetrahydronaphthalen-1-yl)phenyl)-3,9-diazaspiro[5.5]undecan-3-yl)-2-oxoethyl)-6,7-dihydropyrrolo[3,4-f]isoindole-1,3(2H,5H)-dione] it is greater than 100 nM. The figure for `O=C1CCC(N2Cc3cc4c(cc3C2=O)CN(CC2CN(CC3CCN(c5ccc([C@@H]6c7ccc(O)cc7CC[C@@H]6c6ccccc6)cc5)CC3)C2)C4=O)C(=O)N1` (stereo partly drawn) [Compound B301, 2-(2,6-dioxopiperidin-3-yl)-6-((1-((1-(4-((1R,2S)-6-hydroxy-2-phenyl-1,2,3,4-tetrahydronaphthalen-1-yl)phenyl)piperidin-4-yl)methyl)azetidin-3-yl)methyl)-2,3,6,7-tetrahydropyrrolo[3,4-f]isoindole-1,5-dione] is greater than 100 nM.

`O=C1CCC(N2C(=O)c3cc4c(cc3C2=O)CN(C(=O)[C@H]2CC[C@@H](N3CC(Oc5ccc([C@@H]6c7ccc(O)cc7CC[C@@H]6c6ccccc6)cc5)C3)CC2)C4)C(=O)N1` (stereo partly drawn) [Compound B126, 2-(2,6-dioxopiperidin-3-yl)-6-((1R,4s)-4-(3-(4-((1R,2S)-6-hydroxy-2-phenyl-1,2,3,4-tetrahydronaphthalen-1-yl)phenoxy)azetidin-1-yl)cyclohexane-1-carbonyl)-6,7-dihydropyrrolo[3,4-f]isoindole-1,3(2H,5H)-dione]: the DC50 lay within 10 to 100 nM. The figure for `O=C1CCC(N2C(=O)c3cc4c(cc3C2=O)CN(CC(=O)N2CCC3(CC2)CCN(c2ccc([C@@H]5c6ccc(O)cc6CC[C@@H]5c5ccccc5)cc2)C3)C4)C(=O)N1` (mixture of isomers) [Compound B20, 2-(2,6-dioxopiperidin-3-yl)-6-(2-(2-(4-((1R,2S)-6-hydroxy-2-phenyl-1,2,3,4-tetrahydronaphthalen-1-yl)phenyl)-2,8-diazaspiro[4.5]decan-8-yl)-2-oxoethyl)-6,7-dihydropyrrolo[3,4-f]isoindole-1,3(2H,5H)-dione] is 10 to 100 nM; for `O=C1CCC(N2C(=O)c3cc4c(cc3C2=O)CN(C(=O)CN2CCC3(CC2)CC(Oc2ccc([C@@H]5c6ccc(O)cc6CC[C@@H]5c5ccccc5)cc2)C3)C4)C(=O)N1` (stereo partly drawn) [Compound B277, 2-(2,6-dioxopiperidin-3-yl)-6-(2-(2-(4-((1R,2S)-6-hydroxy-2-phenyl-1,2,3,4-tetrahydronaphthalen-1-yl)phenoxy)-7-azaspiro[3.5]nonan-7-yl)acetyl)-6,7-dihydropyrrolo[3,4-f]isoindole-1,3(2H,5H)-dione] it is greater than 100 nM. On to `O=C1CCC(N2C(=O)c3cc4c(cc3C2=O)CN(C(=O)CN2CC3(CCN(c5ccc([C@@H]6c7ccc(O)cc7CC[C@@H]6c6ccccc6)cc5)CC3)C2)C4)C(=O)N1` (mixture of isomers) [Compound B17, 2-(2,6-dioxopiperidin-3-yl)-6-(2-(7-(4-((1R,2S)-6-hydroxy-2-phenyl-1,2,3,4-tetrahydronaphthalen-1-yl)phenyl)-2,7-diazaspiro[3.5]nonan-2-yl)acetyl)-6,7-dihydropyrrolo[3,4-f]isoindole-1,3(2H,5H)-dione], for which the DC50 lay within 10 to 100 nM. The figure for `O=C1CCC(N2C(=O)c3cc4c(cc3C2=O)CN(CCN2CCC3(CC2)CN(c2ccc([C@@H]5c6ccc(O)cc6CC[C@@H]5c5ccccc5)cc2)C3)C4)C(=O)N1` (mixture of isomers) [Compound B196, 2-(2,6-dioxopiperidin-3-yl)-6-(2-(2-(4-((1R,2S)-6-hydroxy-2-phenyl-1,2,3,4-tetrahydronaphthalen-1-yl)phenyl)-2,7-diazaspiro[3.5]nonan-7-yl)ethyl)-6,7-dihydropyrrolo[3,4-f]isoindole-1,3(2H,5H)-dione] is 10 to 100 nM; for `O=C1CCC(N2C(=O)c3cc4c(cc3C2=O)CN(CC(=O)N2CC3(CC(Oc5ccc([C@@H]6c7ccc(O)cc7CC[C@@H]6c6ccccc6)cc5)C3)C2)C4)C(=O)N1` (stereo partly drawn) [Compound B276, 2-(2,6-dioxopiperidin-3-yl)-6-(2-(6-(4-((1R,2S)-6-hydroxy-2-phenyl-1,2,3,4-tetrahydronaphthalen-1-yl)phenoxy)-2-azaspiro[3.3]heptan-2-yl)-2-oxoethyl)-6,7-dihydropyrrolo[3,4-f]isoindole-1,3(2H,5H)-dione] it is greater than 100 nM.
